Molecules are shown by their SMILES.

The subject of this assay is HIV-IIIb. Kind of assay: Test A: Antiviral Assays in MT4 Cells. It is filed as cell-based. Particulars: Human immunodeficiency virus 1, IIIB, MT4, 120 h, MT-4 cells infected with HIV-IIIb (0.004 m.o.i.), 5 days incubation, CellTiter-Glo readout. The procedure: Test A: Antiviral Assays in MT4 Cells
For the antiviral assay utilizing MT-4 cells, 0.4 μL of […] test concentration of 3-fold serially diluted compound in DMSO was added to 40 μL of cell growth medium (RPMI 1640, 10% FBS, 1% penicilline/Streptomycine, 1% L-Glutamine, 1% HEPES) in each well of 384-well assay plates (10 concentrations) in quadruplicate.
1 mL aliquots of 2×10e6 MT-4 cells are pre-infected for 1 and 3 hrs respectively, @ 37° C. with 25 uL (MT4) or of either cell growth medium (mock-infected) or a fresh 1:250 dilution of an HIV-IIIb concentrated ABI stock (0.004 m.o.i. for MT4 cells). Infected and uninfected cells are diluted in cell growth medium and 35 uL of 2000 (for MT4) cells is added to each well of the assay plates.
Assay plates were then incubated in a 37° C. incubator. After 5 days of incubation, 25 μl of 2× concentrated CellTiter-Glo™ Reagent (catalog #G7573, Promega Biosciences, Inc., Madison, Wis.) was added to each well of the assay plate. Cell lysis was carried out by incubating at room temperature for 2-3 min and then chemiluminescence was read using the Envision reader (PerkinElmer).
Accordingly, the compounds disclosed herein (e.g. compound of the invention) may be useful for treating the proliferation of the HIV virus, treating AIDS or delaying the onset of AIDS or ARC symptoms.
`Cc1cc2nc(-c3cnc4[nH]cc(C)c4c3)sc2c(-c2ccc(Cl)cc2)c1[C@](C)(OC(C)(C)C)C(=O)O` [Compound 112, (S)-methyl 2-tert-butoxy-2-(7-(4-chlorophenyl)-5-methyl-2-(3-methyl-1H-pyrrolo[2,3-b]pyridin-5-yl)benzo[d]thiazol-6-yl)acetic acid] gave an EC50 of 0.028 µM. For the compound `Cc1cc2nc(N3CCC(Oc4ccccc4)C3)sc2c(-c2ccc(Cl)cc2)c1[C@H](OC(C)(C)C)C(=O)O` (stereo partly drawn) [Compound 126, (2S)-2-tert-butoxy-2-(7-(4-chlorophenyl)-5-methyl-2-(3-phenoxypyrrolidin-1-yl)benzo[d]thiazol-6-yl)acetic acid], the EC50 turned out to be 0.722 µM. For the compound `Cc1cc2nc(-c3ccnc(-c4cnn(Cc5ccccc5)c4)c3)sc2c(-c2ccc(Cl)cc2)c1[C@H](OC(C)(C)C)C(=O)O` [Compound 150], the EC50 stood at 0.091 µM.

Source of the values: patent publication US9096586B2, “Therapeutic compounds” (Gilead Sciences, Inc., priority 2012, dated 2015).
